PMC8333425, “Discovery of a dual Ras and ARF6 inhibitor from a GPCR endocytosis screen” (Nature Communications, 2021)

Tests used:
Assay in all cases: KINOMEscan kinase binding assay
[1] = target: T1, 384 kinases from the human genome (Homo sapiens, UniProt O14965); conditions: kinase AURKA (Entrez AURKA)
T1 construct: purchased Eurofin/DiscoverX
Text: (§1) We reasoned that because internalizing AT1R and its targeting to intracellular compartments can support continued MAPK signaling, and since 21 inhibits receptor internalization, it should also impede to some extent ERK1/2 activation. […] Receptor-mediated ERK1/2 signaling can involve upstream kinases such as PKC, BRAF, and MEK1[35],[36]. […] To exclude other kinases potentially involved in ERK1/2 and Akt activation as targets of 21, we ran a kinase binding assay (KINOMEscan™) on 384 kinases from the human genome. Remarkably, a very high selectivity score S(10) of 0.008 was found (Supplementary Data 3).
(§2) The chemical library used for initial screening was from Chembridge DiverSet™ (60,000 compounds), Maybridge HitFinder™ (16,000 compounds), Maybridge (selected, 16,000 compounds), SPECS (selected, 16000 compounds), Microsource Discovery Spectrum (2000 compounds), Biomol (natural products, 500 compounds), Prestwick (commercialized products, 1120 compounds), SIGMA LopacTM (1280 compounds) and internal collection (synthesized at Université de Montréal-IRIC, ~4000 compounds). Compounds were all assigned an Université de Montréal number (UM) for internal use. Screen was performed at IRIC HTS facility. KINOMEscan™ profiling was serviced by Eurofin/DiscoverX (San Diego, USA).
(§3) Description of Additional Supplementary Files […]
(§4) File Name: Supplementary Data 3
(§5) Description: KINOMEscan results. Compound 21’s effect was tested on 384 kinases. Data represent kinases binding to their ligands in presence of 10 µM of 21, as compared to DMSO (100%). Results are from one experiment and represent the average of duplicates. Three kinases (FLT3, KIT, and PDGFRB) out of 384 were more than 90% affected (selectivity score S(10) of 0.008). […]

[2] = target: T2, 384 kinases from the human genome (Homo sapiens, UniProt O43353); conditions: kinase RIPK2 (Entrez RIPK2)
T2 construct: purchased Eurofin/DiscoverX
Text: as §1, §2, §3, §4, §5

[3] = target: T3, 384 kinases from the human genome (Homo sapiens, UniProt P07947); conditions: kinase YES (Entrez YES1)
T3 construct: purchased Eurofin/DiscoverX
Text: as §1, §2, §3, §4, §5

[4] = target: T4, 384 kinases from the human genome (Homo sapiens, UniProt P08581); conditions: kinase MET (Entrez MET)
T4 construct: purchased Eurofin/DiscoverX
Text: as §1, §2, §3, §4, §5

[5] = target: T5, 384 kinases from the human genome (Homo sapiens, UniProt P25098); conditions: kinase GRK2 (Entrez ADRBK1)
T5 construct: purchased Eurofin/DiscoverX
Text: as §1, §2, §3, §4, §5

[6] = target: T6, 384 kinases from the human genome (Homo sapiens, UniProt P27037); conditions: kinase ACVR2A (Entrez ACVR2A)
T6 construct: purchased Eurofin/DiscoverX
Text: as §1, §2, §3, §4, §5

[7] = target: T7, 384 kinases from the human genome (Homo sapiens, UniProt P42338); conditions: kinase PIK3CB (Entrez PIK3CB)
T7 construct: purchased Eurofin/DiscoverX
Text: as §1, §2, §3, §4, §5

[8] = target: T8, 384 kinases from the human genome (Homo sapiens, UniProt P51956); conditions: kinase NEK3 (Entrez NEK3)
T8 construct: purchased Eurofin/DiscoverX
Text: as §1, §2, §3, §4, §5

[9] = target: T9, 384 kinases from the human genome (Homo sapiens, UniProt P54762); conditions: kinase EPHB1 (Entrez EPHB1)
T9 construct: purchased Eurofin/DiscoverX
Text: as §1, §2, §3, §4, §5

[10] = target: T10, 384 kinases from the human genome (Homo sapiens, UniProt P57059); conditions: kinase SIK (Entrez SIK1)
T10 construct: purchased Eurofin/DiscoverX
Text: as §1, §2, §3, §4, §5

[11] = target: T11, 384 kinases from the human genome (Homo sapiens, UniProt P78368); conditions: kinase CSNK1G2 (Entrez CSNK1G2)
T11 construct: purchased Eurofin/DiscoverX
Text: as §1, §2, §3, §4, §5

[12] = target: T12, 384 kinases from the human genome (Homo sapiens, UniProt Q02156); conditions: kinase PRKCE (Entrez PRKCE)
T12 construct: purchased Eurofin/DiscoverX
Text: as §1, §2, §3, §4, §5

[13] = target: T13, 384 kinases from the human genome (Homo sapiens, UniProt Q13164); conditions: kinase ERK5 (Entrez MAPK7)
T13 construct: purchased Eurofin/DiscoverX
Text: as §1, §2, §3, §4, §5

[14] = target: T14, 384 kinases from the human genome (Homo sapiens, UniProt Q14164); conditions: kinase IKK-epsilon (Entrez IKBKE)
T14 construct: purchased Eurofin/DiscoverX
Text: as §1, §2, §3, §4, §5

[15] = target: T15, 384 kinases from the human genome (Homo sapiens, UniProt Q15831); conditions: kinase LKB1 (Entrez STK11)
T15 construct: purchased Eurofin/DiscoverX
Text: as §1, §2, §3, §4, §5

[16] = target: T16, 384 kinases from the human genome (Homo sapiens, UniProt Q86UX6); conditions: kinase YANK3 (Entrez STK32C)
T16 construct: purchased Eurofin/DiscoverX
Text: as §1, §2, §3, §4, §5

[17] = target: T17, 384 kinases from the human genome (Homo sapiens, UniProt Q8N752); conditions: kinase CSNK1A1L (Entrez CSNK1A1L)
T17 construct: purchased Eurofin/DiscoverX
Text: as §1, §2, §3, §4, §5

[18] = target: T18, 384 kinases from the human genome (Homo sapiens, UniProt Q96RR4); conditions: kinase CAMKK2 (Entrez CAMKK2)
T18 construct: purchased Eurofin/DiscoverX
Text: as §1, §2, §3, §4, §5

[19] = target: T19, 384 kinases from the human genome (Homo sapiens, UniProt Q9H1R3); conditions: kinase MYLK2 (Entrez MYLK2)
T19 construct: purchased Eurofin/DiscoverX
Text: as §1, §2, §3, §4, §5

[20] = target: T20, 384 kinases from the human genome (Homo sapiens, UniProt Q9H2K8); conditions: kinase TAOK3 (Entrez TAOK3)
T20 construct: purchased Eurofin/DiscoverX
Text: as §1, §2, §3, §4, §5

[21] = target: T21, 384 kinases from the human genome (Homo sapiens, UniProt Q9H4A3); conditions: kinase WNK1 (Entrez WNK1)
T21 construct: purchased Eurofin/DiscoverX
Text: as §1, §2, §3, §4, §5

[22] = target: T22, 384 kinases from the human genome (Homo sapiens, UniProt Q9HC98); conditions: kinase NEK6 (Entrez NEK6)
T22 construct: purchased Eurofin/DiscoverX
Text: as §1, §2, §3, §4, §5

[23] = target: T23, 384 kinases from the human genome (Homo sapiens, UniProt Q9NYY3); conditions: kinase PLK2 (Entrez PLK2)
T23 construct: purchased Eurofin/DiscoverX
Text: as §1, §2, §3, §4, §5

[24] = target: T24, 384 kinases from the human genome (Homo sapiens, UniProt Q9UL54); conditions: kinase TAOK2 (Entrez TAOK2)
T24 construct: purchased Eurofin/DiscoverX
Text: as §1, §2, §3, §4, §5

[25] = target: T25, 384 kinases from the human genome (Homo sapiens, UniProt Q9UPE1); conditions: kinase SRPK3 (Entrez SRPK3)
T25 construct: purchased Eurofin/DiscoverX
Text: as §1, §2, §3, §4, §5

[26] = target: T26, 384 kinases from the human genome (Homo sapiens, UniProt Q9Y243); conditions: kinase AKT3 (Entrez AKT3)
T26 construct: purchased Eurofin/DiscoverX
Text: as §1, §2, §3, §4, §5

T26 sequence (Q9Y243 whole entry): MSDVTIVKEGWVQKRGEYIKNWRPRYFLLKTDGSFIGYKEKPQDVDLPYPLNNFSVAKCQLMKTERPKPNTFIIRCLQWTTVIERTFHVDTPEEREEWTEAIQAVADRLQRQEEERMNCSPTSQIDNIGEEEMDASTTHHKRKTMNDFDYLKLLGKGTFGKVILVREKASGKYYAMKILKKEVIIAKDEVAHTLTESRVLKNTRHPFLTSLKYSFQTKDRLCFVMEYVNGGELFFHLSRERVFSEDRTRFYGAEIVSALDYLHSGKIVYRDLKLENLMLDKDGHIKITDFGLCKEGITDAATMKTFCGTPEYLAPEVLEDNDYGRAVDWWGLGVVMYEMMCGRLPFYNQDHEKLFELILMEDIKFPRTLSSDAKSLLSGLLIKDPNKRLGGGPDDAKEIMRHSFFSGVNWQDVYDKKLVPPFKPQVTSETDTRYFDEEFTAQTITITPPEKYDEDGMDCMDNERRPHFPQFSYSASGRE
T9 sequence (P54762 18-984): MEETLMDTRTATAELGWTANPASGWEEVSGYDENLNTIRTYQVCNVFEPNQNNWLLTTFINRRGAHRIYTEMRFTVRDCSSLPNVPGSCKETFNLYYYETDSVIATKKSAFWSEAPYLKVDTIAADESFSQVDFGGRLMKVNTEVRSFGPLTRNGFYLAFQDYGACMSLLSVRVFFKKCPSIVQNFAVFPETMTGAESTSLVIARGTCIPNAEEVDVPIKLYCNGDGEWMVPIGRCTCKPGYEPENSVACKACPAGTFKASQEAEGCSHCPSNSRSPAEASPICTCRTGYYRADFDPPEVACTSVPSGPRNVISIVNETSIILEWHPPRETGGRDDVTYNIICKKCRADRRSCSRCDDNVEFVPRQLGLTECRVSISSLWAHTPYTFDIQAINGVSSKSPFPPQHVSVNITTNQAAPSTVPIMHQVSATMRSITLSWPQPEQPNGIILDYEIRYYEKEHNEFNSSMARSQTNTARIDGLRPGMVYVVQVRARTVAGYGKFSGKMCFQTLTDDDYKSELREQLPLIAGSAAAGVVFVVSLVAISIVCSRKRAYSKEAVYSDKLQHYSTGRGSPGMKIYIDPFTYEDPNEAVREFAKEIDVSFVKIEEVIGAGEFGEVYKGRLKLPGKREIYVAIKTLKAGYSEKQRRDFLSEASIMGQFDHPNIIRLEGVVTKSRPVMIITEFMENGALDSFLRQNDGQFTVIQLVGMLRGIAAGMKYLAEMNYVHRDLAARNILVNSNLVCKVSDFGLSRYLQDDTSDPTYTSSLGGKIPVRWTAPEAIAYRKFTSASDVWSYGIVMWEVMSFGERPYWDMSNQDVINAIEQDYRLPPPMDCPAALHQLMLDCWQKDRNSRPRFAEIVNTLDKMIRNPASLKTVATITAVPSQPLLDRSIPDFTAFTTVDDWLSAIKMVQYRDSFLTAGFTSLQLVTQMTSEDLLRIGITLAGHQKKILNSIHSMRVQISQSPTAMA
T25 sequence (Q9UPE1 whole entry): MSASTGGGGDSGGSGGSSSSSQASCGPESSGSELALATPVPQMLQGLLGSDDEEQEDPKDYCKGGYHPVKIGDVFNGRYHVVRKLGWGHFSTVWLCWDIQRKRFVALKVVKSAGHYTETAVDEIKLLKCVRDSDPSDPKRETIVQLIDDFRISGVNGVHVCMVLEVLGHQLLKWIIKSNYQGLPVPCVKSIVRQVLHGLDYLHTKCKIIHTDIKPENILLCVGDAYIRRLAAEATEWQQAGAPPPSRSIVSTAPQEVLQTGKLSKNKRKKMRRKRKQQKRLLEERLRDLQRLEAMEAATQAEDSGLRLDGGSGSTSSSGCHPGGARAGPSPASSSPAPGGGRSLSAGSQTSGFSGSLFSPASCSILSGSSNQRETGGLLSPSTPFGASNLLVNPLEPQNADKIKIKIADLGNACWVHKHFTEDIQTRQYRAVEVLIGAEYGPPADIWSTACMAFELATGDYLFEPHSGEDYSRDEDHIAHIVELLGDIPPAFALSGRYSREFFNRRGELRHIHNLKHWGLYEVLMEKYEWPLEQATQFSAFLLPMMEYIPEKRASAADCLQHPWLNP
T14 sequence (Q14164 whole entry): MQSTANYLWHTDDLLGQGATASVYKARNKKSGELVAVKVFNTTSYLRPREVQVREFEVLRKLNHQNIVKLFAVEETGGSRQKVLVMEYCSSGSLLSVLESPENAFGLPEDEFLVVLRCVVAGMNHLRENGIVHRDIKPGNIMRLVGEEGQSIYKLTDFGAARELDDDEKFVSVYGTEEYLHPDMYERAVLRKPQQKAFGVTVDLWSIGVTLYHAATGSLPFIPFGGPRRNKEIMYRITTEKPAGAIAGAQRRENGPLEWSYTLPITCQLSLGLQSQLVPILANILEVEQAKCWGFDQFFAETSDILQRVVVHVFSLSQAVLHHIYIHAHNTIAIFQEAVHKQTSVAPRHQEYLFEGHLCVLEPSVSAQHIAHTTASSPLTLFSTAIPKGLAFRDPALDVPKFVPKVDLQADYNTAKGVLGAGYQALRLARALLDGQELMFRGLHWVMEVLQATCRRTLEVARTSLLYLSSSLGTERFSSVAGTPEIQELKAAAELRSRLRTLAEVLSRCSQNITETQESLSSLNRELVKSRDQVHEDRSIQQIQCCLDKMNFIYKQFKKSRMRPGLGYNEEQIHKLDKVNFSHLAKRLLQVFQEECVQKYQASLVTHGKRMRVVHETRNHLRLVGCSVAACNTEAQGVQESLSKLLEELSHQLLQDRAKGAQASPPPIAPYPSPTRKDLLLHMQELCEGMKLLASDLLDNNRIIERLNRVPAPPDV
T24 sequence (Q9UL54 whole entry): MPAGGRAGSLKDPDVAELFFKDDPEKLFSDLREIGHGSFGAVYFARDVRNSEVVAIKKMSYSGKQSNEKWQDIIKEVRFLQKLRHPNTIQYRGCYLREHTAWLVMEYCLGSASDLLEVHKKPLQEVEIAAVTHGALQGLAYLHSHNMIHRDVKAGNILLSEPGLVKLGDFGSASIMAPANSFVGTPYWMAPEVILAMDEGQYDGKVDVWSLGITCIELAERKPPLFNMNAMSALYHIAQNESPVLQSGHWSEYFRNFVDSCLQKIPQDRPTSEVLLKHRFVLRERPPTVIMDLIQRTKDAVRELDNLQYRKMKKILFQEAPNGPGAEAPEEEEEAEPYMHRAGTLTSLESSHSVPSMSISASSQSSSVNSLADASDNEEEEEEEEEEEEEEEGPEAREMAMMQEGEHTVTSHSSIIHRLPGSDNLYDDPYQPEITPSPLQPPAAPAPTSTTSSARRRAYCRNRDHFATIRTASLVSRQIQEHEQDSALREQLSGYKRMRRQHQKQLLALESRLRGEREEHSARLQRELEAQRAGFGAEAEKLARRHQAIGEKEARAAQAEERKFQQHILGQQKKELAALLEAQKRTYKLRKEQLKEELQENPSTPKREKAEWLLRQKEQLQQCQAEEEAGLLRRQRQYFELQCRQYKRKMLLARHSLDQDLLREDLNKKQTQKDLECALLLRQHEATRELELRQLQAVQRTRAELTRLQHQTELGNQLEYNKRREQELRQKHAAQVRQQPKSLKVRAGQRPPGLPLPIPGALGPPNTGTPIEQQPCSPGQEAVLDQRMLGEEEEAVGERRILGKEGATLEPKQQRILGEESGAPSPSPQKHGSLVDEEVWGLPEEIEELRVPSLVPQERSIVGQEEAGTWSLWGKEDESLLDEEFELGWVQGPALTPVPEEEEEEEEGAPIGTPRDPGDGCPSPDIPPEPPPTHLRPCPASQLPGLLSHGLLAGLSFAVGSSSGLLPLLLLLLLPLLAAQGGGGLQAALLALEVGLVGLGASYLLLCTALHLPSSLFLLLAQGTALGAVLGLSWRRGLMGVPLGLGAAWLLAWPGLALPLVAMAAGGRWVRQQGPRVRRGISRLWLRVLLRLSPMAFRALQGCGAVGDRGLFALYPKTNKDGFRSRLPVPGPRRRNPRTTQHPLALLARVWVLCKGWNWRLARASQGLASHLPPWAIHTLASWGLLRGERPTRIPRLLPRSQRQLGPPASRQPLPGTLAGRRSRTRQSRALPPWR
T15 sequence (Q15831 whole entry): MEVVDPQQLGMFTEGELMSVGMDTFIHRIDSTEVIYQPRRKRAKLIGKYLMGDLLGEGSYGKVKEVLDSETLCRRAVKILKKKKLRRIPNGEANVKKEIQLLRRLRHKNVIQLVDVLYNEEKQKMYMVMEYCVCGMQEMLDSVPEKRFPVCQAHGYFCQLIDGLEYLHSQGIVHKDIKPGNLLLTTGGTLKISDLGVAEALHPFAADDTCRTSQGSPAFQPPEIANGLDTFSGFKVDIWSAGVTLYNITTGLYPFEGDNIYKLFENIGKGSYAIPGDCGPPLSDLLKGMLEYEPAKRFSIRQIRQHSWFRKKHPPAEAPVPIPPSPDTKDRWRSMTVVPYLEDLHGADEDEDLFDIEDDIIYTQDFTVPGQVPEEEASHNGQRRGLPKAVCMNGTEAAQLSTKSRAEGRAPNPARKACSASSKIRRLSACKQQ
T8 sequence (P51956 whole entry): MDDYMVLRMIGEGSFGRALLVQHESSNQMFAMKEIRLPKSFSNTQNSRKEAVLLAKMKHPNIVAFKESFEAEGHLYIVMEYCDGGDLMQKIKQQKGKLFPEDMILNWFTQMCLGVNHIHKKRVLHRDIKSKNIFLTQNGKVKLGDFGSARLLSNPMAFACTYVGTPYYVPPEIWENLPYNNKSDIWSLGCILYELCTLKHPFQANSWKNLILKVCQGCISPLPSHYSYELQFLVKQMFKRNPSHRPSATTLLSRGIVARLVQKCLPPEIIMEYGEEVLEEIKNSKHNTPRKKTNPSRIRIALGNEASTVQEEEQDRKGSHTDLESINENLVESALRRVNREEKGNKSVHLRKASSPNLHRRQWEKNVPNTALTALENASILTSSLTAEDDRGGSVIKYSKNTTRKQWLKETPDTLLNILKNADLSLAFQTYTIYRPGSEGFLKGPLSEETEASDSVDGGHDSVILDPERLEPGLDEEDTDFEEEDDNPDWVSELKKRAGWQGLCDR

SMILES: CC(C)C(=O)N1CCN(c2ccc(NC(=O)c3cc4ccccc4o3)cc2Cl)CC1 [Compound 21]
- Percent Control [1]: 89%
- Percent Control [2]: 81%
- Percent Control [3]: 89%
- Percent Control [4]: 91%
- Percent Control [5]: 99%
- Percent Control [6]: 100%
- Percent Control [7]: 99%
- Percent Control [8]: 100%
- Percent Control [9]: 94%
- Percent Control [10]: 94%
- Percent Control [11]: 92%
- Percent Control [12]: 99%
- Percent Control [13]: 99%
- Percent Control [14]: 100%
- Percent Control [15]: 67%
- Percent Control [16]: 100%
- Percent Control [17]: 98%
- Percent Control [18]: 100%
- Percent Control [19]: 80%
- Percent Control [20]: 100%
- Percent Control [21]: 94%
- Percent Control [22]: 94%
- Percent Control [23]: 90%
- Percent Control [24]: 93%
- Percent Control [25]: 100%
- Percent Control [26]: 100%
